In patent US6914045B2, “Glycopeptide antibiotics” (Wyeth Holdings Corporation, priority 2001, dated 2005):
Values after ≈ are worked out from the molar mass of the structure shown.

What was measured:
Test in all cases: in vitro antibacterial evaluation, MIC by broth dilution
Format in all cases: cell-based
Streptococcus sp. = system: Streptococcus sp.
Procedure, shortened: (§1)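 MIC, the lowest antibiotic concentration preventing growth, was read across 64-0.06 μg/mL with 5×10^5 CFU/mL inoculum. Method followed NCCLS M7-A2 broth dilution using Mueller-Hinton II; Gram-positive strains covered recent methicillin-, penicillin- and/or vancomycin-resistant clinical isolates.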

Staphylococcus sp. = settings: broth dilution, 18 hours at 35° C.; for MIC Staphylococcus aureus (ATCC 29213): strain ATCC 29213; for MIC Staphylococcus aureus (GC 1131): strain GC 1131; for MIC Staphylococcus aureus (GC 3051): strain GC 3051; for MIC Staphylococcus aureus (GC 3053): strain GC 3053; for MIC Staphylococcus aureus (GC 4541): strain GC 4541; for MIC Staphylococcus aureus (GC 4542): strain GC 4542; for MIC Staphylococcus aureus-SMITH (GC 4543): strain GC 4543; for MIC Staphylococcus aureus (GC 4544): strain GC 4544; for MIC Staphylococcus aureus (GC 4545): strain GC 4545; for MIC Staphylococcus haemolyticus (GC 4546): strain GC 4546; for MIC Coagulase Negative Staphylococcus (GC 4547): strain GC 4547; for MIC Coagulase Negative Staphylococcus (GC 4548): strain GC 4548; for MIC Coagulase Negative Staphylococcus (GC 4549): strain GC 4549; for MIC Coagulase Negative Staphylococcus (GC 4551): strain GC 4551; for MIC Coagulase Negative Staphylococcus (GC 6257): strain GC 6257
Procedure, shortened: as §1

Enterococcus sp. = system: Enterococcus sp.
Procedure, shortened: as §1

Escherichia coli = settings: 18 hours at 35° C.
Procedure, shortened: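 MIC is the lowest antibiotic concentration (tested 64-0.06 μg/mL) preventing growth of a 5×10^5 CFU/mL inoculum. Determined by broth dilution in Mueller-Hinton II medium following NCCLS standard M7-A2.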

[1] = broth dilution, 18 hours at 35° C.

CC(c1ccccc1)C1NC(=O)CNC(=O)C(CO)NC(=O)C(C(O)C2CNC(=N)N2C2OC(CO)C(O)C(O)C2O)NC(=O)C(C(O)C2CNC(=N)N2)NC(=O)C(Cc2ccc(O)c(NC(=S)Nc3cc(C(F)(F)F)cc(C(F)(F)F)c3)c2)NC1=O (stereo not drawn) [Example 24, Cyclo[glycyl-β-methylphenylalanyl-3-[[[3,5-bis(trifluoromethyl)phenyl]carbamothioyl]amino]-tyrosyl-3-(2-iminoimidazolidin-4-yl)seryl-3-(3-hexopyranosyl-2-iminoimidazolidin-4-y)-serylseryl]]
MIC Streptococcus pneumoniae (ATCC 6301) (Streptococcus sp.; strain ATCC 6301; broth dilution, 18 hours at 35° C.): >64 mg/L | MIC Streptococcus pneumoniae (GC 1894) (Streptococcus sp.; strain GC 1894; broth dilution, 18 hours at 35° C.): 64 mg/L (≈ 50.9 µM) | MIC Streptococcus pyogenes (GC 4563) (Streptococcus sp.; strain GC 4563; broth dilution, 18 hours at 35° C.): 64 mg/L (≈ 50.9 µM) | MIC Streptococcus agalactiae (GC 4564) (Streptococcus sp.; strain GC 4564; broth dilution, 18 hours at 35° C.): >64 mg/L | MIC Streptococcus pneumoniae (GC 4565) (Streptococcus sp.; strain GC 4565; broth dilution, 18 hours at 35° C.): >64 mg/L | MIC Staphylococcus aureus (ATCC 29213) (Staphylococcus sp.): >64 mg/L | MIC Staphylococcus aureus (GC 1131) (Staphylococcus sp.): >64 mg/L | MIC Staphylococcus aureus (GC 3051) (Staphylococcus sp.): >64 mg/L | MIC Staphylococcus aureus (GC 3053) (Staphylococcus sp.): >64 mg/L | MIC Staphylococcus aureus (GC 4541) (Staphylococcus sp.): >64 mg/L | MIC Staphylococcus aureus (GC 4542) (Staphylococcus sp.): >64 mg/L | MIC Staphylococcus aureus-SMITH (GC 4543) (Staphylococcus sp.): >64 mg/L | MIC Staphylococcus aureus (GC 4544) (Staphylococcus sp.): >64 mg/L | MIC Staphylococcus aureus (GC 4545) (Staphylococcus sp.): >64 mg/L | MIC Staphylococcus haemolyticus (GC 4546) (Staphylococcus sp.): 64 mg/L (≈ 50.9 µM) | MIC Coagulase Negative Staphylococcus (GC 4547) (Staphylococcus sp.): 64 mg/L (≈ 50.9 µM) | MIC Coagulase Negative Staphylococcus (GC 4548) (Staphylococcus sp.): 64 mg/L (≈ 50.9 µM) | MIC Coagulase Negative Staphylococcus (GC 4549) (Staphylococcus sp.): >64 mg/L | MIC Coagulase Negative Staphylococcus (GC 4551) (Staphylococcus sp.): >64 mg/L | MIC Coagulase Negative Staphylococcus (GC 6257) (Staphylococcus sp.): 32 mg/L (≈ 25.5 µM) | MIC Enterococcus faecalis (ATCC 29212) (Enterococcus sp.; strain ATCC 29212; broth dilution, 18 hours at 35° C.): 64 mg/L (≈ 50.9 µM) | MIC Enterococcus faecalis (GC 2242) (Enterococcus sp.; strain GC 2242; broth dilution, 18 hours at 35° C.): 64 mg/L (≈ 50.9 µM) | MIC Enterococcus faecium (GC 2243) (Enterococcus sp.; strain GC 2243; broth dilution, 18 hours at 35° C.): 64 mg/L (≈ 50.9 µM) | MIC Enterococcus faecalis (GC 2691) (Enterococcus sp.; strain GC 2691; broth dilution, 18 hours at 35° C.): >64 mg/L | MIC Enterococcus faecalis (GC 3059) (Enterococcus sp.; strain GC 3059; broth dilution, 18 hours at 35° C.): >64 mg/L | MIC Enterococcus faecalis (GC 4552) (Enterococcus sp.; strain GC 4552; broth dilution, 18 hours at 35° C.): >64 mg/L | MIC Enterococcus faecalis (GC 4553) (Enterococcus sp.; strain GC 4553; broth dilution, 18 hours at 35° C.): 32 mg/L (≈ 25.5 µM) | MIC Enterococcus faecalis (GC 4554) (Enterococcus sp.; strain GC 4554; broth dilution, 18 hours at 35° C.): >64 mg/L | MIC Enterococcus faecium (GC 4556) (Enterococcus sp.; strain GC 4556; broth dilution, 18 hours at 35° C.): 64 mg/L (≈ 50.9 µM) | MIC Enterococcus faecium (GC 4557) (Enterococcus sp.; strain GC 4557; broth dilution, 18 hours at 35° C.): 32 mg/L (≈ 25.5 µM) | MIC Enterococcus avium (GC 4558) (Enterococcus sp.; strain GC 4558; broth dilution, 18 hours at 35° C.): 64 mg/L (≈ 50.9 µM) | MIC Enterococcus faecalis (GC 6189) (Enterococcus sp.; strain GC 6189; broth dilution, 18 hours at 35° C.): >64 mg/L | MIC Escherichia coli (ATCC 25922) (Escherichia coli; strain ATCC 25922, broth dilution): >64 mg/L | MIC Escherichia coli (GC 4559) (Escherichia coli; strain GC 4559, broth dilution): >64 mg/L | MIC Escherichia coli (GC 4560) (Escherichia coli; strain GC 4560, broth dilution): 32 mg/L (≈ 25.5 µM)

Di-N-(4-tert-butylbenzyl)-cyclo[glycyl-β-methylphenylalanyl-O-(4-O-hexopyranosylhexopyranosyl)tyrosyl-3-(2-iminoimidazolidin-4-yl)seryl-3-(3-hexoopyranosyl-2-iminoimidazolidin-4-yl)serylseryl] [Example 60a]
MIC Streptococcus agalactiae (GC 4564) (Streptococcus sp.; [1]): >128 mg/L | MIC Streptococcus pneumoniae (ATCC 6301) (Streptococcus sp.; [1]): >128 mg/L | MIC Streptococcus pneumoniae (GC 1894) (Streptococcus sp.; [1]): 64 mg/L | MIC Streptococcus pneumoniae (GC 4565) (Streptococcus sp.; [1]): 128 mg/L | MIC Streptococcus pyogenes (GC 4563) (Streptococcus sp.; [1]): >128 mg/L | MIC Streptococcus pneumoniae (ATCC 6301) (Streptococcus sp.; broth dilution, 18 hours at 35° C.; strain ATCC 6301): >128 mg/L | MIC Streptococcus pneumoniae (GC 1894) (Streptococcus sp.; broth dilution, 18 hours at 35° C.; strain GC 1894): 64 mg/L | MIC Streptococcus pyogenes (GC 4563) (Streptococcus sp.; broth dilution, 18 hours at 35° C.; strain GC 4563): >128 mg/L | MIC Streptococcus agalactiae (GC 4564) (Streptococcus sp.; broth dilution, 18 hours at 35° C.; strain GC 4564): >128 mg/L | MIC Streptococcus pneumoniae (GC 4565) (Streptococcus sp.; broth dilution, 18 hours at 35° C.; strain GC 4565): 128 mg/L | MIC Staphylococcus aureus (ATCC 29213) (Staphylococcus sp.): >128 mg/L | MIC Staphylococcus aureus (GC 1131) (Staphylococcus sp.): >128 mg/L | MIC Staphylococcus aureus (GC 3051) (Staphylococcus sp.): >128 mg/L | MIC Staphylococcus aureus (GC 3053) (Staphylococcus sp.): >128 mg/L | MIC Staphylococcus aureus (GC 4541) (Staphylococcus sp.): >128 mg/L | MIC Staphylococcus aureus (GC 4542) (Staphylococcus sp.): >128 mg/L | MIC Staphylococcus aureus-SMITH (GC 4543) (Staphylococcus sp.): >128 mg/L | MIC Staphylococcus aureus (GC 4544) (Staphylococcus sp.): >128 mg/L | MIC Staphylococcus aureus (GC 4545) (Staphylococcus sp.): >128 mg/L | MIC Staphylococcus haemolyticus (GC 4546) (Staphylococcus sp.): >128 mg/L | MIC Coagulase Negative Staphylococcus (GC 4547) (Staphylococcus sp.): >128 mg/L | MIC Coagulase Negative Staphylococcus (GC 4548) (Staphylococcus sp.): >128 mg/L | MIC Coagulase Negative Staphylococcus (GC 4549) (Staphylococcus sp.): >128 mg/L | MIC Coagulase Negative Staphylococcus (GC 4551) (Staphylococcus sp.): >128 mg/L | MIC Coagulase Negative Staphylococcus (GC 6257) (Staphylococcus sp.): >128 mg/L | MIC Enterococcus avium (GC 4558) (Enterococcus sp.; Enterococcus avium (GC 4558); broth dilution, 18 hours at 35° C.): 128 mg/L | MIC Enterococcus faecalis (ATCC 29212) (Enterococcus sp.; Enterococcus faecalis (ATCC 29212); broth dilution, 18 hours at 35° C.): >128 mg/L | MIC Enterococcus faecalis (GC 4552) (Enterococcus sp.; Enterococcus faecalis (GC 4552); broth dilution, 18 hours at 35° C.): >128 mg/L | MIC Enterococcus faecalis (GC 4553) (Enterococcus sp.; Enterococcus faecalis (GC 4553); broth dilution, 18 hours at 35° C.): 128 mg/L | MIC Enterococcus faecalis (GC 4554) (Enterococcus sp.; Enterococcus faecalis (GC 4554); broth dilution, 18 hours at 35° C.): >128 mg/L | MIC Enterococcus faecalis (GC 6189) (Enterococcus sp.; Enterococcus faecalis (GC 6189); broth dilution, 18 hours at 35° C.): >128 mg/L | MIC Enterococcus faecium (GC 2243) (Enterococcus sp.; Enterococcus faecium (GC 2243); broth dilution, 18 hours at 35° C.): >128 mg/L | MIC Enterococcus faecium (GC 4556) (Enterococcus sp.; Enterococcus faecium (GC 4556); broth dilution, 18 hours at 35° C.): >128 mg/L | MIC Enterococcus faecium (GC 4557) (Enterococcus sp.; Enterococcus faecium (GC 4557); broth dilution, 18 hours at 35° C.): 128 mg/L | MIC Enterococcus avium (GC 4558) (Enterococcus sp.; [1]): 128 mg/L | MIC Enterococcus faecalis (ATCC 29212) (Enterococcus sp.; [1]): >128 mg/L | MIC Enterococcus faecalis (GC 2242) (Enterococcus sp.; [1]): >128 mg/L | MIC Enterococcus faecalis (GC 2691) (Enterococcus sp.; [1]): >128 mg/L | MIC Enterococcus faecalis (GC 3059) (Enterococcus sp.; [1]): >128 mg/L | MIC Enterococcus faecalis (GC 4552) (Enterococcus sp.; [1]): >128 mg/L | MIC Enterococcus faecalis (GC 4553) (Enterococcus sp.; [1]): 128 mg/L | MIC Enterococcus faecalis (GC 4554) (Enterococcus sp.; [1]): >128 mg/L | MIC Enterococcus faecalis (GC 6189) (Enterococcus sp.; [1]): >128 mg/L | MIC Enterococcus faecium (GC 2243) (Enterococcus sp.; [1]): >128 mg/L | MIC Enterococcus faecium (GC 4556) (Enterococcus sp.; [1]): >128 mg/L | MIC Enterococcus faecium (GC 4557) (Enterococcus sp.; [1]): 128 mg/L | MIC Enterococcus faecalis (GC 2242) (Enterococcus sp.; broth dilution, 18 hours at 35° C.; strain GC 2242): >128 mg/L | MIC Enterococcus faecalis (GC 2691) (Enterococcus sp.; broth dilution, 18 hours at 35° C.; strain GC 2691): >128 mg/L | MIC Enterococcus faecalis (GC 3059) (Enterococcus sp.; broth dilution, 18 hours at 35° C.; strain GC 3059): >128 mg/L | MIC Escherichia coli (ATCC 25922) (Escherichia coli): >128 mg/L | MIC Escherichia coli (GC 4559) (Escherichia coli): >128 mg/L | MIC Escherichia coli (GC 4560) (Escherichia coli): 16 mg/L
